ChEMBL document CHEMBL1201862, “PubChem BioAssay data set” (2004)
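Values below derive from 48-hour exposures of cells grown in 96-well plates, with endpoints linearly interpolated between the two concentrations bracketing the appropriate inhibition level. Abbreviation: GI50, concentration required for 50% inhibition of growth.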 The source made the active and inactive calls. No stated cut-off is given here; in the data, active = GI50 up to about 1.1 µM and inactive = higher.

How the values were obtained:
Assay in all cases: inhibition of tumour cell growth, NCI panel, 48 h
[1] = test system: HOP-62
[2] = test system: NCI-H226
[3] = test system: UACC-62
[4] = test system: LOX IMVI
[5] = test system: SK-MEL-2
[6] = test system: SK-MEL-28
[7] = test system: RXF 393
[8] = test system: SNB-19
[9] = test system: IGROV-1
[10] = test system: HCC 2998
[11] = test system: SF-295
[12] = test system: MDA-MB-435
[13] = test system: Malme-3M
[14] = test system: KM12
[15] = test system: Hs-578T
[16] = test system: A498
[17] = test system: NCI/ADR-RES
[18] = test system: SW-620
[19] = test system: HL-60
[20] = test system: SF-539
[21] = test system: U-251
[22] = test system: HT-29
[23] = test system: SK-OV-3
[24] = test system: A549
[25] = test system: RPMI-8226
[26] = test system: M14
[27] = test system: SR
[28] = test system: SN12C
[29] = test system: NCI-H23
[30] = test system: ACHN
[31] = test system: T47D
[32] = test system: CCRF-CEM
[33] = test system: UO-31
[34] = test system: SF-268
[35] = test system: 786-0
[36] = test system: MOLT-4
[37] = test system: PC-3
[38] = test system: DU-145
[39] = test system: COLO 205
[40] = test system: MDA-MB-231
[41] = test system: TK-10
[42] = test system: EKVX
[43] = test system: HCT-116
[44] = test system: OVCAR-3
[45] = test system: CAKI-1
[46] = test system: UACC-257
[47] = test system: BT-549
[48] = test system: NCI-H522
[49] = test system: HCT-15
[50] = test system: MCF7
[51] = test system: HOP-92
[52] = test system: SNB-75
[53] = test system: MDA-N
[54] = test system: OVCAR-4
[55] = test system: OVCAR-8
[56] = test system: OVCAR-5
[57] = test system: SK-MEL-5
[58] = test system: NCI-H460
[59] = test system: K562

CC1=CC(=O)CC(C)(C)C1(O)/C=C/C(C)=C/C(=O)O (stereo not given)
GI50 [1]: > 100 µM (inactive)
GI50 [2]: > 100 µM (inactive)
GI50 [3]: > 100 µM (inactive)
GI50 [4]: > 100 µM (inactive)
GI50 [5]: > 100 µM (inactive)
GI50 [6]: > 100 µM (inactive)
GI50 [7]: > 100 µM (inactive)
GI50 [8]: > 100 µM (inactive)
GI50 [9]: > 100 µM (inactive)
GI50 [10]: > 100 µM (inactive)
GI50 [11]: > 100 µM (inactive)
GI50 [12]: > 100 µM (inactive)
GI50 [13]: > 100 µM (inactive)
GI50 [14]: > 100 µM (inactive)
GI50 [15]: > 100 µM (inactive)
GI50 [16]: > 100 µM (inactive)
GI50 [17]: > 100 µM (inactive)
GI50 [18]: > 100 µM (inactive)
GI50 [19]: > 100 µM (inactive)
GI50 [20]: > 100 µM (inactive)
GI50 [21]: > 100 µM (inactive)
GI50 [22]: > 100 µM (inactive)
GI50 [23]: > 100 µM (inactive)
GI50 [24]: > 100 µM (inactive)
GI50 [25]: > 100 µM (inactive)
GI50 [26]: > 100 µM (inactive)
GI50 [27]: > 100 µM (inactive)
GI50 [28]: > 100 µM (inactive)
GI50 [29]: > 100 µM (inactive)
GI50 [30]: > 100 µM (inactive)
GI50 [31]: > 100 µM (inactive)
GI50 [32]: > 100 µM (inactive)
GI50 [33]: > 100 µM (inactive)
GI50 [34]: > 100 µM (inactive)
GI50 [35]: > 100 µM (inactive)
GI50 [36]: > 100 µM (inactive)
GI50 [37]: > 100 µM (inactive)
GI50 [38]: > 100 µM (inactive)
GI50 [39]: > 100 µM (inactive)
GI50 [40]: > 100 µM (inactive)
GI50 [41]: > 100 µM (inactive)
GI50 [42]: > 100 µM (inactive)
GI50 [43]: > 100 µM (inactive)
GI50 [44]: > 100 µM (inactive)
GI50 [45]: > 100 µM (inactive)
GI50 [46]: > 100 µM (inactive)
GI50 [47]: > 100 µM (inactive)
GI50 [48]: > 100 µM (inactive)
GI50 [49]: > 100 µM
GI50 [50]: > 100 µM (inactive)
GI50 [51]: > 100 µM (inactive)
GI50 [52]: > 100 µM (inactive)
GI50 [53]: > 100 µM (inactive)
GI50 [54]: > 100 µM (inactive)
GI50 [55]: > 100 µM (inactive)
GI50 [56]: > 100 µM (inactive)
GI50 [57]: > 100 µM (inactive)
GI50 [58]: > 100 µM (inactive)
GI50 [59]: > 100 µM (inactive)

CCOC(=O)C(NC(=O)Nc1ccccc1)(Nc1cccc(Cl)c1)C(F)(F)F (stereo not given)
GI50 [1]: > 100 µM (inactive)
GI50 [2]: > 100 µM (inactive)
GI50 [3]: > 100 µM (inactive)
GI50 [4]: > 100 µM (inactive)
GI50 [5]: > 100 µM (inactive)
GI50 [6]: > 100 µM (inactive)
GI50 [7]: 20.7 µM (inactive)
GI50 [8]: > 100 µM (inactive)
GI50 [9]: > 100 µM (inactive)
GI50 [10]: > 100 µM (inactive)
GI50 [12]: > 100 µM (inactive)
GI50 [13]: > 100 µM (inactive)
GI50 [14]: > 100 µM (inactive)
GI50 [15]: 24.3 µM (inactive)
GI50 [16]: > 66.4 µM (inactive)
GI50 [17]: > 100 µM (inactive)
GI50 [18]: > 100 µM (inactive)
GI50 [19]: 42 µM (inactive)
GI50 [20]: > 100 µM (inactive)
GI50 [21]: > 100 µM (inactive)
GI50 [22]: > 100 µM (inactive)
GI50 [23]: > 100 µM (inactive)
GI50 [24]: > 100 µM (inactive)
GI50 [25]: > 100 µM (inactive)
GI50 [26]: > 100 µM (inactive)
GI50 [27]: > 100 µM (inactive)
GI50 [28]: > 100 µM (inactive)
GI50 [29]: > 100 µM (inactive)
GI50 [30]: > 100 µM (inactive)
GI50 [31]: > 100 µM (inactive)
GI50 [32]: 45.1 µM (inactive)
GI50 [33]: > 100 µM (inactive)
GI50 [34]: > 100 µM (inactive)
GI50 [35]: > 100 µM (inactive)
GI50 [36]: 98.9 µM (inactive)
GI50 [37]: > 100 µM (inactive)
GI50 [38]: > 100 µM (inactive)
GI50 [39]: > 100 µM (inactive)
GI50 [40]: > 100 µM (inactive)
GI50 [41]: > 100 µM (inactive)
GI50 [42]: > 100 µM (inactive)
GI50 [43]: > 100 µM (inactive)
GI50 [44]: > 100 µM (inactive)
GI50 [46]: > 100 µM (inactive)
GI50 [47]: > 100 µM (inactive)
GI50 [48]: 92.9 µM (inactive)
GI50 [49]: > 100 µM
GI50 [50]: > 100 µM (inactive)
GI50 [51]: 39.8 µM (inactive)
GI50 [52]: 46.7 µM (inactive)
GI50 [53]: > 100 µM (inactive)
GI50 [55]: > 100 µM (inactive)
GI50 [56]: > 100 µM (inactive)
GI50 [57]: > 100 µM (inactive)
GI50 [58]: > 100 µM (inactive)
GI50 [59]: > 100 µM (inactive)
